The values that follow come from patent US8623857B2, “N-phenyl imidazole carboxamide inhibitors of 3-phosphoinositide-dependent protein kinase-1” (Merck Sharp & Dohme Corp., priority 2010, dated 2014).

One assay concerns the target T1, recombinant human PDK1 (Homo sapiens, UniProt O15530).
T1 construct: containing amino acids 51-556 of the human PDK1 enzyme; made in house; host or cells: Sf9 insect cells
T1 sequence (O15530 51-556): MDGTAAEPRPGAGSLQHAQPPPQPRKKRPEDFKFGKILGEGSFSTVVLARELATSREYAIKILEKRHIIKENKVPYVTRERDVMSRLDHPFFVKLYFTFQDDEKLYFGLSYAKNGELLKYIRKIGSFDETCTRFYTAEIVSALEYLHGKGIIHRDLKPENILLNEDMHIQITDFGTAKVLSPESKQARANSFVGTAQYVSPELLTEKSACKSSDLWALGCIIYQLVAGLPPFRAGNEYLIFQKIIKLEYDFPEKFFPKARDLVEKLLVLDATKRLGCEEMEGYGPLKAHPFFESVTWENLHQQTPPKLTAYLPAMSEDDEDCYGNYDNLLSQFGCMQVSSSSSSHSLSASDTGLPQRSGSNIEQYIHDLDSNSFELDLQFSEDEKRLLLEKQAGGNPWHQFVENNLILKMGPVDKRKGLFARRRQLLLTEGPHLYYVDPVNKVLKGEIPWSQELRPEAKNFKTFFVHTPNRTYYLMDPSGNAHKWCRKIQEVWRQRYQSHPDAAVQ
The assay is described as follows: PDK1 IMAP fluorescence polarization assay (inhibition of peptide substrate phosphorylation). The assay is classed as biochemical. Conditions: Table 6; 10 nM PDK1 enzyme, 100 nM peptide substrate, 100 nM PIFtide, 2.5 uM ATP, 1.5 hours. A general note: In fluorescence polarisation assays a small probe gives low polarisation when free and higher when bound to something large.
For the compound `Cc1cc(-c2c[nH]c(C(=O)Nc3cccc(F)c3N3CCC(C(=O)N4CCOCC4CN)CC3)n2)ccn1` (stereo not drawn) [Compound 81, N-[2-[4-[[3-(aminomethyl)-4-morpholinyl]carbonyl]-1-piperidinyl]-3-fluorophenyl]-4-(2-methyl-4-pyridinyl)-1H-imidazole-2-carboxamide], the IC50 (in general, the midpoint of a concentration-inhibition curve) was in the range of 51 to 250 nM.
Regarding `NC(=O)N[C@@H]1CCCN(c2c(F)cccc2NC(=O)c2nc(Br)c[nH]2)C1` [Compound 15, N-[2-[3(R)-[(aminocarbonyl)amino]-1-piperidinyl]-3-fluorophenyl]-4-bromo-1H-imidazole-2-carboxamide], the IC50 lay within 1000 to 5000 nM.
On the same count and under the same terms, then `NCC1CCN(c2c(F)cccc2NC(=O)c2nc(-c3ccnc(NCc4ccccc4)c3)c[nH]2)CC1` [Compound 35, N-[2-[4-(aminomethyl)-1-piperidinyl]-3-fluorophenyl]-4-[2-[(phenylmethyl)amino]-4-pyridinyl]-1H-imidazole-2-carboxamide], with 1 to 50 nM; and `Cc1cc(-c2c[nH]c(C(=O)Nc3cccc(F)c3N3CCC(CN)CC3)n2)ccn1` [Compound 18, N-[2-[4-(aminomethyl)-1-piperidinyl]-3-fluorophenyl]-4-(2-methyl-4-pyridinyl)-1H-imidazole-2-carboxamide], with 1 to 50 nM; and `CN(C)CCOc1ccccc1NC(=O)c1nc(-c2c[nH]c3ccccc23)c[nH]1` [Compound 17, N-[2-[2-(dimethylamino)ethoxy]phenyl]-4-(1H-indol-3-yl)-1H-imidazole-2-carboxamide], with 251 to 1000 nM.
Still for that read-out and setting: then `Cc1cc(-c2c[nH]c(C(=O)Nc3cccc(F)c3N3CCC(C(=O)N4CCOC(CCO)C4)CC3)n2)ccn1` (stereo not drawn) [Compound 90, N-[3-fluoro-2-[4-[[2-(2-hydroxyethyl)-4-morpholinyl]carbonyl]-1-piperidinyl]phenyl]-4-(2-methyl-4-pyridinyl)-1H-imidazole-2-carboxamide], with 251 to 1000 nM; and `N[C@@H]1CCCN(c2c(F)cccc2NC(=O)c2nc(Br)c[nH]2)C1` [Compound 12, N-[2-(3(R)-amino-1-piperidinyl)-3-fluorophenyl]-4-bromo-1H-imidazole-2-carboxamide], with 51 to 250 nM; and `N[C@@H]1CCCN(c2c(F)cccc2NC(=O)c2nc(-c3ccnc(C4CC4)c3)c[nH]2)C1` [Compound 23, N-[2-(3(R)-amino-1-piperidinyl)-3-fluorophenyl]-4-(2-cyclopropyl-4-pyridinyl)-1H-imidazole-2-carboxamide], with 51 to 250 nM.
The same measure, in the same setting: then `CNC(=O)C1CCN(c2c(F)cccc2NC(=O)c2nc(-c3ccnc(C)c3)c[nH]2)CC1` [Compound 59, 1-[2-fluoro-6-[[[4-(2-methyl-4-pyridinyl)-1H-imidazol-2-yl]carbonyl]amino]phenyl]-N-methyl-4-piperidinecarboxamide], with 1000 to 5000 nM; and `NCC1CCN(c2c(F)cccc2NC(=O)c2nc(-c3cc(NCc4ccccc4)nc(N)n3)c[nH]2)CC1` [Compound 69, N-[2-[4-(aminomethyl)-1-piperidinyl]-3-fluorophenyl]-4-[2-amino-6-[(phenylmethyl)amino]-4-pyrimidinyl]-1H-imidazole-2-carboxamide], with 1 to 50 nM.
Take `Cc1cc(-c2c[nH]c(C(=O)Nc3cccc(F)c3N3CCC(C(=O)N4CCC5(CC4)CNC5)CC3)n2)ccn1` [Compound 94, N-[2-[4-(2,7-diazaspiro[3.5]noN-7-ylcarbonyl)-1-piperidinyl]-3-fluorophenyl]-4-(2-methyl-4-pyridinyl)-1H-imidazole-2-carboxamide]: the IC50 was 51 to 250 nM.
Same read-out and setting: then `CC(=O)Nc1cc(-c2c[nH]c(C(=O)Nc3cccc(F)c3N3CCC(CN)CC3)n2)ccn1` [Compound 33, 4-[2-(acetylamino)-4-pyridinyl]-N-[2-[4-(aminomethyl)-1-piperidinyl]-3-fluorophenyl]-1H-imidazole-2-carboxamide], with 51 to 250 nM; and `Cc1cc(-c2c[nH]c(C(=O)Nc3cccc(F)c3N3CCC(C(C)(C)N)CC3)n2)ccn1` [Compound 67, N-[2-[4-(1-amino-1-methylethyl)-1-piperidinyl]-3-fluorophenyl]-4-(2-methyl-4-pyridinyl)-1H-imidazole-2-carboxamide], with 51 to 250 nM.

Still in this assay, the particulars now being: Table 10; compounds 97-132.
For the compound `CNc1nc(-c2c[nH]c(C(=O)Nc3cccc(F)c3N3CCC(CN)CC3)n2)cc(N2CC[C@@](COC)(C(=O)NCc3ccccc3)C2)n1` [Compound 130, (R)—N-(2-(4-(aminomethyl)piperidin-1-yl)-3-fluorophenyl)-4-(6-(3-(benzylcarbamoyl)-3-(methoxymethyl)pyrrolidin-1-yl)-2-(methylamino)pyrimidin-4-yl)-1H-imidazole-2-carboxamide], the IC50 was 1 to 50 nM.
On the same count and under the same terms, next, `CNc1nc(-c2c[nH]c(C(=O)Nc3cccc(F)c3N3CCC(CN)CC3)n2)cc(N2CC[C@@](OC)(C(=O)NC3CCCCC3)C2)n1` [Compound 129, (S)—N-(2-(4-(aminomethyl)piperidin-1-yl)-3-fluorophenyl)-4-(6-(3-(cyclohexylcarbamoyl)-3-methoxypyrrolidin-1-yl)-2-(methylamino)pyrimidin-4-yl)-1H-imidazole-2-carboxamide]: 1 to 50 nM; `Cc1cc(-c2c[nH]c(C(=O)Nc3cccc(F)c3N3CCC[C@@H](N)C3)n2)cc(Cl)n1` [Compound 98, (R)—N-(2-(3-aminopiperidin-1-yl)-3-fluorophenyl)-4-(2-chloro-6-methylpyridin-4-yl)-1H-imidazole-2-carboxamide]: 251 to 1000 nM; `CNc1nc(-c2c[nH]c(C(=O)Nc3cccc(F)c3N3CCC(CN)CC3)n2)cc(N2CCC[C@@H](N)C2)n1` [Compound 126, (R)—N-(2-(4-(aminomethyl)piperidin-1-yl)-3-fluorophenyl)-4-(6-(3-aminopiperidin-1-yl)-2-(methylamino)pyrimidin-4-yl)-1H-imidazole-2-carboxamide]: 1 to 50 nM.
As for `CNc1nc(-c2c[nH]c(C(=O)Nc3cccc(F)c3N3CCC(CN)CC3)n2)cc(N2CCN(C(C)=O)CC2)n1` [Compound 101, 4-(6-(4-acetylpiperazin-1-yl)-2-(methylamino)pyrimidin-4-yl)-N-(2-(4-(aminomethyl)piperidin-1-yl)-3-fluorophenyl)-1H-imidazole-2-carboxamide], the IC50 lay within 1 to 50 nM.
Still for that read-out and setting: then `CNc1nc(-c2c[nH]c(C(=O)Nc3ccccc3N3CCC4(CC3)OCCO4)n2)cc(N2CC(C(=O)NC3CCCCC3)CCC2C)n1` (racemic) [Compound 113], with 1 to 50 nM.
On the same count and under the same terms, then `CNc1nc(-c2c[nH]c(C(=O)Nc3ccccc3OC3CCNCC3)n2)cc(N2CC(C(=O)NC3CCCCC3)CCC2C)n1` (racemic) [Compound 108, N-cyclohexyl-6-methyl-1-(2-(methylamino)-6-(2-(2-(piperidin-4-yloxy)phenylcarbamoyl)-1H-imidazol-4-yl)pyrimidin-4-yl)piperidine-3-carboxamide], with 1 to 50 nM.
Still for that read-out and setting: next, `CNc1nc(-c2c[nH]c(C(=O)Nc3cccc(F)c3N3CCO[C@@H](CN)C3)n2)cc(N2CC(C(=O)NC3CCCCC3)CCC2C)n1` (mixture of isomers) [Compound 110, 1-(6-(2-(2-((S)-2-(aminomethyl)morpholino)-3-fluorophenylcarbamoyl)-1H-imidazol-4-yl)-2-(methylamino)pyrimidin-4-yl)-N-cyclohexyl-6-methylpiperidine-3-carboxamide]: 1 to 50 nM.
Consider `CNc1nc(-c2c[nH]c(C(=O)Nc3cccc(F)c3N3CCC(CN)CC3)n2)cc(N2CCN(C(=O)OC)CC2)n1` [Compound 100, methyl 4-(6-(2-(2-(4-(aminomethyl)piperidin-1-yl)-3-fluorophenylcarbamoyl)-1H-imidazol-4-yl)-2-(methylamino)pyrimidin-4-yl)piperazine-1-carboxylate], for which the IC50 lay within 1 to 50 nM.
Regarding `CNc1nc(-c2c[nH]c(C(=O)Nc3cccc(F)c3N3CCC(CN)CC3)n2)cc(N2C[C@@H](C(=O)NC3CCCCC3)CC[C@H]2C)n1` [Compound 115, (3S,6R)-1-(6-(2-(2-(4-(aminomethyl)piperidin-1-yl)-3-fluorophenylcarbamoyl)-1H-imidazol-4-yl)-2-(methylamino)pyrimidin-4-yl)-N-cyclohexyl-6-methylpiperidine-3-carboxamide], the concentration for half-maximal inhibition (IC50) lay in the range of 1 to 50 nM.

The target of another assay is T2, PDK-1 (Homo sapiens, UniProt O15530).
T2 sequence (O15530 1-556): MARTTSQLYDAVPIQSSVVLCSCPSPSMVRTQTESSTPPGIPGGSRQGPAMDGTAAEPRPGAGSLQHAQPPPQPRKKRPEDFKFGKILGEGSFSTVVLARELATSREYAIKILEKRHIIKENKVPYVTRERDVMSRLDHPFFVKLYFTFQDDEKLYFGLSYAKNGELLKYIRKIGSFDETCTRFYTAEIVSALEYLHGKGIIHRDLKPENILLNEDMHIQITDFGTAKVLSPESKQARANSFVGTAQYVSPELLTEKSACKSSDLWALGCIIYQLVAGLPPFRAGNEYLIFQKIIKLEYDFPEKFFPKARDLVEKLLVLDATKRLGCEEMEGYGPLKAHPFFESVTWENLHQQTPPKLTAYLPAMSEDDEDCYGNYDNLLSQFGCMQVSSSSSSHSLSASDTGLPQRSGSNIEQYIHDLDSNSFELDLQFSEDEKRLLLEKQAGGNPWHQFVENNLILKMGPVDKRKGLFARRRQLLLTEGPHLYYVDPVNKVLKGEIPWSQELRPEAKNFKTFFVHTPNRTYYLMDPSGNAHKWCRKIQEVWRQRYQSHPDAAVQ
Assay: not given
The following applies: in vitro; cited from earlier work.
In the case of “PIFtide: "The peptide sequence of PIFtide is RREPRILSEEEQEMFRDFDYIADWC (SEQ ID NO:2)"; "interacts with PDK-1 and is derived from PRK2 kinase" (PIFtide)”, the “enhance PDK-1 phosphorylation of substrates” value is “approximately 4 fold”.
